From patent US5753631A, “Intercellular adhesion mediators” (Cytel Corporation, priority 1995, dated 1998)

Key:
[1] = tested on: CVF-induced acute lung injury; experiment: Cobra venom factor (CVF)-induced acute lung injury in the rat; format: in vivo
Experimental: Groups of rats were pretreated with either vehicle, SLN-OH (0.6 mg/Kg), or with SLX-OH (0.6 mg/Kg) 5 minutes prior to administration of either CVF or PBS. Each bar represents the mean of 6 animals and vertical lines represent the standard error of the mean.
Groups of rats were pretreated with either vehicle or Z at the indicated doses 5 minutes prior to administration of CVF or PBS. Each point represents the mean of 6 animals and vertical lines represent the standard error of the mean.
The intravenous injection of CVF produces intravascular complement activation which results in lung injury, defined as an increase in neutrophil accumulation within the lung, an increase in pulmonary vascular permeability and in lung hemorrhage. It is likely that intravascular complement activation results in the generation of a wide range of inflammatory mediators. Of particular relevance to the studies described here is generation of the split fifth complement component, C5a, which can stimulate the release of histamine from circulating basophils and tissue mast cells. […] The expression of selectins, including P-selectin, is a necessary first step in the process of leukocyte adherence to vascular endothelium.
Animals were dosed with different oligosaccharide preparations or phosphate buffered saline (PBS) five minutes before administration of cobra venom factor (20 units/Kg, i.v.). Included in this material was an aliquot of ^125 I-bovine serum albumin (0.5 μCi) and ^51 Cr labelled autologous red blood cells (0.5 μCi) for measuring plasma extravasation and hemorrhage respectively. Thirty minutes after administration of the cobra venom factor the animals were anesthetized with ketamine hydrochloride (10 mg/Kg) and exsanguinated via the posterior vena cava. The lung vasculature was then perfused through the right cardiac ventricle with 10 mL of PBS. The lungs were removed and the amount of radioactivity remaining within the tissue assessed with a gamma scintillation counter. Increased pulmonary vascular permeability was measured as the ratio of ^125 I in lung tissue compared with the amount present in 1 mL of venous blood obtained at the time of death. Lung hemorrhage was measured as the ratio of ^51 Cr in lung tissue compared with the amount present in 1 mL of venous blood obtained at the time of death. Neutrophil accumulation in lungs was determined by measuring the myeloperoxidase activity of lungs homogenized in PBS. Myeloperoxidase activity in lung supernatants was assayed by measuring the change in absorbance at 460 nm resulting from decomposition of H2 O2 in the presence of o-dianisidine

creatinine kinase = experiment: Plasma creatinine kinase after myocardial ischemia-reperfusion in cats; format: in vivo, cat; details: 10 mg/Kg i.v.; control 25±3, P<0.01
Experimental: (§1) A model of myocardial ischemia and reperfusion injury in cats was performed according to the methods of Tsao et al (Circulation 82:1402-1412 (1990), which is incorporated herein by reference. Briefly, male cats (2.5-3.5 Kg) were anesthetized with sodium pentobarbital (30 mg/Kg, i.v.). An intratracheal tube was inserted through a mid-line incision and all cats were given intermittent positive pressure ventilation by a Harvard small animal respirator. A polyethylene catheter was inserted into the external jugular vein and the right […] was cannulated and connected to a Statham P23AC pressure transducer for the measurement of arterial blood pressure. A midline thoracotomy was performed, the pericardium was opened and the heart was exposed. A 2-0 silk suture was carefully placed around the left anterior descending artery (LAD) 10-12 mm from its origin. […]
(§2) Endothelial dependent relaxation of coronary artery rings was determined by measuring the acetylcholine-induced relaxation of rings previously contracted with the thromboxane A2 mimetic U46619. Data are expressed as percentage relaxation. Creatinine kinase enzyme levels were measured immunochemically in plasma samples collected at the end of the reperfusion period. The adherence of PMNs to sections of coronary artery was measured in vitro using fluorescene labelled autologous cat neutrophils.

[2] = tested on: myocardial ischemia-reperfusion injury in the cat heart; experiment: Myocardial ischemia-reperfusion injury in cats: ischemic myocardium; format: in vivo, cat (male); details: 10 mg/Kg i.v.; control 35±4%, P<0.01
Experimental: A model of myocardial ischemia and reperfusion injury in cats was performed according to the methods of Tsao et al (Circulation 82:1402-1412 (1990), which is incorporated herein by reference. Briefly, male cats (2.5-3.5 Kg) were anesthetized with sodium pentobarbital (30 mg/Kg, i.v.). An intratracheal tube was inserted through a mid-line incision and all cats were given intermittent positive pressure ventilation by a Harvard small animal respirator. A polyethylene catheter was inserted into the external jugular vein and the right […] was cannulated and connected to a Statham P23AC pressure transducer for the measurement of arterial blood pressure. A midline thoracotomy was performed, the pericardium was opened and the heart was exposed. A 2-0 silk suture was carefully placed around the left anterior descending artery (LAD) 10-12 mm from its origin. After a 30 minute period of stabilization myocardial ischemia was initiated by complete ligation of the LAD for 1.5 hours of ischemia followed by 4.5 hours of reperfusion. Z (10 mg/Kg in PBS) or PBS alone were administered intravenously 10 minutes prior to the initiation of reperfusion.
Area at risk was determined by reocclusion of the LAD at the end of the reperfusion period followed by the injection of Evans blue dye into the left atrium. The area of risk was, therefore, determined by negative staining.

coronary artery rings = experiment: Acetylcholine-induced endothelial dependent relaxation of coronary artery rings from ischemic-reperfused cats; format: in vivo, cat; details: 10 mg/Kg i.v.; control 22±6%, P<0.01
Experimental: as §1, §2

[3] = tested on: dermal and pulmonary models of inflammation; experiment: Dermal and pulmonary models of inflammation: leukocyte accumulation; format: in vivo
[4] = tested on: coronary vascular endothelium; experiment: Adherence of cat PMNs to coronary endothelium in vitro; format: cell-based
Experimental: as §2

[5] = tested on: IgA immune complex induced lung injury; experiment: IgA immune complex-induced acute lung injury in the rat; format: in vivo, rat (male Long-Evans); details: conclusion in words
Experimental: Groups of rats were dosed with either vehicle, SLN-OH (100 μpg), or with SLX-OH (100 μg) […] post induction of inflammation. Each bar represents the mean of 6 animals and vertical lines represent the standard error of the mean.
Adult male (300 g) specific pathogen-free Long-Evans rats purchased from Charles River Labs (Portage, Mich.) were employed in the studies. For the induction of IgG immune complex pulmonary inflammation rabbit polyclonal IgG rich in antibody to bovine serum albumin (antiBSA) was purchased from Organon Teknika (Westchester, PA). Intraperitoneal ketamine (10 mg/Kg) was administered for anesthesia. 2.5 mg of anti-BSA in a volume of 300 μl was instilled intratracheally via a small intratracheal catheter during inspiration after surgical exposure of the trachea. Intravenous injection of 10 mg BSA was injected intravenously to generate immune complex formation. Trace amounts of ^125 I-BSA and ^51 Cr-RBC were administered with the BSA as markers for plasma and RBC extravasation respectively. Rats were sacrificed 4 h later and lung injury was assessed by the ratio of radiolabelled albumin in the lungs relative to the circulation (permeability), the ratio of RBC in the lungs relative to the circulation (hemorrhage) and the amount of myeloperoxidase activity in a lung homogenate (neutrophil accumulation). For induction of IgA immune complex induced lung injury 1.2 mg of a murine myeloma IgA protein specific for dinitrophenol (DNP) was instilled intratracheally and 3.3 mg DNP-bovine serum albumin injected intravenously. Lung injury was assessed in the same manner described for IgG-induced lung injury.
SLX-OH, Z, the non-fucosylated control oligosaccharide SLN, or an equivalent volume of PBS were injected intravenously in three equally divided doses at 2, 2.5, and 3 h following deposition of immune complexes. This schedule for injections was selected since it coincides with the time during which rapid expression of E-selectin occurs in the pulmonary vasculature.

[6] = dose range 0.15 to 1.5 mg/Kg (FIG. 17)

Row | Compound | effect on CVF-induced permeability, hemorrhage, MPO / lung injury ([1]; in words, prior to CVF, 30 minutes) | plasma concentration of creatinine kinase (creatinine kinase) [IU/mg protein] | extent of myocardial ischemia, of the area at risk [2] [%] | endothelial dependent relaxation to acetylcholine (coronary artery rings) [%] | inhibition of leukocyte accumulation [3] | adhesion of cat PMNs to thrombin stimulated coronary vascular endothelium ([4]; 250μM, thrombin 2 unit/mL) | adherence of PMNs to coronary endothelium from treated animals ([4]; endothelium from treated animals versus control animals) | reduction of hemorrhage [1, 6] [%] | reduction of neutrophil MPO content [1, 6] [%] | reduction of permeability values [1, 6] [%] | dose at which protective effects plateau ([1]; rat, in vivo) [mg/kg] | effect on IgA immune complex-induced neutrophil accumulation and pathological sequelae [5]
1 | CC(=O)NC1C(O)OC(CO)C(OC2OC(CO)C(O)C(OC3(C(=O)O)CC(O)C(NC(C)=O)C(C(O)C(O)CO)O3)C2O)C1O (stereo not drawn) [SLN, reference compound] | did not inhibit CVF-induced neutrophil accumulation or CVF-induced lung injury | – | – | – | – | – | – | – | – | – | – | –
2 | CCO[C@@H]1O[C@H](CO)[C@H](O)[C@H](O[C@@H]2O[C@H](CO)[C@@H](O[C@@H]3O[C@H](CO)[C@H](O)[C@H](O[C@]4(C(=O)O)C[C@H](O)[C@@H](NC(C)=O)[C@H]([C@H](O)[C@H](O)CO)O4)[C@H]3O)[C@H](O[C@@H]3O[C@@H](C)[C@@H](O)[C@@H](O)[C@@H]3O)[C@H]2NC(C)=O)[C@H]1O [Z, Ethyl(sodium(5-acetamido-3,5-dideoxy-α-D-glycero-D-galacto-2-nonulopyanosylonate))-(2-3)-O-(β-D-galactopyranosyl)-(1-4)-O-((α-L-fucopyranosyl)-(1-3))-O-(2-acetamido-2-deoxy-β-D-glucopyranosyl)-(1-3)-O-β-D-galactopyranoside] | – | 7±1 | 6±1 | 73±7 | do not provide evidence of the ability of Z to inhibit leukocyte accumulation | blocked the adhesion of cat PMNs | less than that determined in control animals | 47 | 49 | 67 | 0.6 | not IgA
